The values below come from a polymer gas permeability compilation.

`*/C=C/C1CC(*)CC1[Si](C)(C)C` (repeat unit): the CH4 permeability came to 17 Barrer, the CO2 permeability is 89 Barrer, the H2 permeability came out at 140 Barrer and the N2 permeability was determined as 7.2 Barrer. This compound also gave an O2 permeability of 30 Barrer.
As to `*/C=C/c1ccc(*)cc1[Si](CC)(CC)CC` (repeat unit), the CO2 permeability amounted to 24 Barrer, the N2 permeability stood at 1.8 Barrer and the O2 permeability came to 6.6 Barrer.
On the same counts, the results for `*C(=C(*)c1ccc(C(C)(C)C)cc1)c1ccccc1` (repeat unit) are 6200 Barrer, 930 Barrer and 1710 Barrer.
For `*C(=C(*)c1ccc(C(C)C)cc1)c1ccccc1` (repeat unit), in that order: 1100 Barrer, 150 Barrer and 300 Barrer.
`*C(=C(*)c1ccc([Si](C)(C)CCCCCCCC)cc1)c1ccc(C(C)(C)C)cc1` (repeat unit) showed a CO2 permeability of 100 Barrer, an N2 permeability of 7.5 Barrer and an O2 permeability of 26 Barrer.
For `*C(=C(*)c1ccc([Si](C)(C)CCCCCCCC)cc1)c1ccc(C(C)C)cc1` (repeat unit), in that order: 120 Barrer, 9.1 Barrer and 29 Barrer.
For `*C(=C(*)c1ccc([Si](C)(C)CCCCCCCC)cc1)c1ccccc1` (repeat unit), in that order: 170 Barrer, 11 Barrer and 34 Barrer.
The compound `*C(C)=C(*)CCC` (repeat unit) had a CH4 permeability of 21 Barrer, a CO2 permeability of 120 Barrer, an H2 permeability of 160 Barrer and an N2 permeability of 12 Barrer. The compound further yielded an O2 permeability of 39 Barrer.
For `*C(C)=C(*)CCC(C)C` (repeat unit), in that order: 112 Barrer, 390 Barrer, 370 Barrer, 51 Barrer and 130 Barrer.
Regarding `*C(Cl)CCCC(*)S(=O)(=O)Cl` (repeat unit), the H2 permeability amounted to 13.3 Barrer, the N2 permeability was 0.955 Barrer and the O2 permeability came to 3.29 Barrer.
The compound `*C/C=C\C*` (repeat unit) gave a CO2 permeability of 138 Barrer, an H2 permeability of 41.9 Barrer, an N2 permeability of 15.8 Barrer and an O2 permeability of 19 Barrer.
Compound `*CC(*)(C)C#N` (repeat unit) yielded a CO2 permeability of 0.0032 Barrer and an O2 permeability of 0.0012 Barrer.
`*CC(*)(Cl)Cl` (repeat unit) returned a CO2 permeability of 0.029 Barrer, an N2 permeability of 0.000939 Barrer and an O2 permeability of 0.00519 Barrer.
On to `*CC(*)C#N` (repeat unit), for which the CO2 permeability is 0.0018 Barrer, the N2 permeability came to 0.00016 Barrer and the O2 permeability was 0.00028 Barrer.
Turning to `*CC(*)CC(C)C` (repeat unit), the CO2 permeability was found to be 92.6 Barrer and the O2 permeability worked out at 32.3 Barrer.
`*CC(*)F` (repeat unit) came in with a CO2 permeability of 0.0791 Barrer and an H2 permeability of 0.35 Barrer.
The compound `*CC(*)O` (repeat unit) returned a CO2 permeability of 1.2e-06 Barrer and an O2 permeability of 7e-07 Barrer.
The compound `*CC(*)OC(=O)c1ccccc1` (repeat unit) returned a CO2 permeability of 6.32 Barrer.
In the case of `*CC(*)OC(C)=O` (repeat unit), the H2 permeability amounted to 9.19 Barrer and the O2 permeability worked out at 0.488 Barrer.
Turning to `*CC(*)OC1CCCCC1` (repeat unit), the CO2 permeability was found to be 13.6 Barrer, the N2 permeability was 0.99 Barrer and the O2 permeability came to 3.69 Barrer.
On the same counts, the results for `*CC(*)OCC1CC2CC1C1CCCC21` (repeat unit) are 2.85 Barrer, 0.13 Barrer and 0.81 Barrer.
For `*CC(*)OCC1CCCCC1` (repeat unit), in that order: 5.89 Barrer, 0.4 Barrer and 1.55 Barrer.
On the same counts, the results for `*CC(*)[Si](C)(C)c1ccccc1` (repeat unit) are 12.3 Barrer, 0.45 Barrer and 2.47 Barrer.
`*CC(*)c1ccc(C([Si](C)(C)C)[Si](C)(C)C)cc1` (repeat unit) showed a CO2 permeability of 150 Barrer, an N2 permeability of 10.1 Barrer and an O2 permeability of 37.7 Barrer.
As to `*CC(CCl)O*` (repeat unit), the H2 permeability came to 8.9 Barrer, the N2 permeability was 0.44 Barrer and the O2 permeability turned out to be 1.05 Barrer.
`*CCC(F)(Cl)C(*)(F)F` (repeat unit) came in with a CO2 permeability of 0.607 Barrer, an N2 permeability of 0.061 Barrer and an O2 permeability of 0.152 Barrer.
Regarding `*CCSS*` (repeat unit), the CO2 permeability came out at 3.14 Barrer, the H2 permeability came out at 1.57 Barrer and the O2 permeability worked out at 0.288 Barrer.
Compound `*Cc1ccc(C*)c(Br)c1` (repeat unit) yielded a CO2 permeability of 0.036 Barrer and an H2 permeability of 0.452 Barrer.
In the case of `*Cc1ccc(C*)c(C#N)c1` (repeat unit), the CO2 permeability was determined as 0.301 Barrer, the H2 permeability was 1.78 Barrer and the O2 permeability is 0.0904 Barrer.
Turning to `*Cc1ccc(C*)c(CC)c1` (repeat unit), the CO2 permeability was 1.89 Barrer, the H2 permeability was found to be 4.31 Barrer, the N2 permeability is 0.0904 Barrer and the O2 permeability was 0.5 Barrer.
Turning to `*N=P(*)(C)C` (repeat unit), the CO2 permeability amounted to 29.4 Barrer, the N2 permeability turned out to be 1.27 Barrer and the O2 permeability stood at 3.53 Barrer.
As for `*NCCCCCC(*)=O` (repeat unit), the CO2 permeability is 0.165 Barrer and the O2 permeability came to 0.036 Barrer.
For the compound `*NCCCCCCCCCCC(*)=O` (repeat unit), the CO2 permeability is 1 Barrer and the H2 permeability turned out to be 2.63 Barrer.
Take `*Nc1ccc(*)cc1OCC` (repeat unit): the CO2 permeability is 2.22 Barrer, the H2 permeability is 8.1 Barrer, the N2 permeability was 0.107 Barrer and the O2 permeability was found to be 0.62 Barrer.
Compound `*OC1OC(CO[N+](=O)[O-])C(OC2OC(O[N+](=O)[O-])C(O*)C(O)C2O[N+](=O)[O-])C(O)C1O[N+](=O)[O-]` (repeat unit) yielded an H2 permeability of 2 Barrer, an N2 permeability of 0.12 Barrer and an O2 permeability of 0.6 Barrer.
Regarding `*Oc1cc2c(cc1O*)C1(CC2(C)C)CC(C)(C)c2cc3c(cc21)Oc1c(C#N)c(*)c(*)c(C(=O)O)c1O3` (repeat unit), the CO2 permeability is 2540 Barrer, the H2 permeability was determined as 1540 Barrer, the N2 permeability came to 162 Barrer and the O2 permeability was 534 Barrer.
On the same counts, the results for `*Oc1ccc(-c2nn(-c3ccc(S(=O)(=O)c4ccc(*)cc4)cc3)c(=O)c3ccccc23)cc1` (repeat unit) are 0.92 Barrer, 2.4 Barrer, 0.027 Barrer and 0.15 Barrer.
Regarding `*Oc1ccc(Oc2ccc3c(c2)-c2nc4cc(Oc5ccc6nc7n(c6c5)C(=O)c5cc(*)ccc5-7)ccc4n2C3=O)cc1` (repeat unit), the H2 permeability is 5.34 Barrer, the N2 permeability is 0.036 Barrer and the O2 permeability is 0.23 Barrer.
On to `*Oc1ccc(S(=O)(=O)c2ccc(Oc3c(C)cc(C(C)(C)c4cc(C)c(*)c(C)c4)cc3C)cc2C(O)(C(F)(F)F)C(F)(F)F)c(C(O)(C(F)(F)F)C(F)(F)F)c1` (repeat unit), for which the CO2 permeability is 30 Barrer, the N2 permeability is 1.5 Barrer and the O2 permeability was 8.5 Barrer.
For `*Oc1ccc(S(=O)(=O)c2ccc(Oc3ccc(C(C)(C)c4ccc(*)c(C(OC)(C(F)(F)F)C(F)(F)F)c4)cc3C(OC)(C(F)(F)F)C(F)(F)F)cc2)cc1` (repeat unit), in that order: 7.7 Barrer, 0.26 Barrer and 2 Barrer.
As for `*Oc1ccc2c(c1)-c1nc3cc(Oc4ccc5nc6n(c5c4)C(=O)c4cc(*)ccc4-6)ccc3n1C2=O` (repeat unit), the H2 permeability came out at 6.88 Barrer, the N2 permeability was 0.026 Barrer and the O2 permeability worked out at 0.22 Barrer.
On the same counts, the results for `*c1c(C)c(C)c(N2C(=O)c3ccc(C(=O)c4ccc5c(c4)C(=O)N(*)C5=O)cc3C2=O)c(C)c1C` (repeat unit) are 108 Barrer, 2.63 Barrer and 11.8 Barrer.
For `*c1c(C)cc(-c2cc(C)c(N3C(=O)c4ccc(C(=O)Oc5ccc(C(c6ccc(OC(=O)c7ccc8c(c7)C(=O)N(*)C8=O)cc6)(C(F)(F)F)C(F)(F)F)cc5)cc4C3=O)c(C)c2)cc1C` (repeat unit), in that order: 38 Barrer, 0.549 Barrer and 3.02 Barrer.
In turn, `*c1cc(CCCCCCCCCCCC)c(*)s1` (repeat unit) had a CO2 permeability of 88.2 Barrer, an N2 permeability of 9.4 Barrer and an O2 permeability of 20.2 Barrer.
`*c1ccc(-c2ccc(N3C(=O)c4ccc(C(c5ccc6c(c5)C(=O)N(*)C6=O)(C(F)(F)F)C(F)(F)F)cc4C3=O)c(N)c2)cc1N` (repeat unit) came in with a CO2 permeability of 138 Barrer, an N2 permeability of 5.2 Barrer and an O2 permeability of 34 Barrer.
On to `*c1ccc(Oc2ccc(C(C)(C)c3ccc(Oc4ccc(N5C(=O)c6ccc(Oc7ccc8c(c7)C(=O)N(*)C8=O)cc6C5=O)cc4)cc3)cc2)cc1` (repeat unit), for which the CO2 permeability stood at 2.7 Barrer, the H2 permeability was 8 Barrer, the N2 permeability stood at 0.07 Barrer and the O2 permeability came to 0.49 Barrer.
The compound `*c1ccc2c(c1)-c1nc3ccc(-c4ccc5c(c4)nc4n5C(=O)c5cc(C(c6ccc7c(c6)C(=O)N(c6cc(C(c8ccc(O)c(N9C(=O)c%10ccc(C(*)(C(F)(F)F)C(F)(F)F)cc%10C9=O)c8)(C(F)(F)F)C(F)(F)F)ccc6O)C7=O)(C(F)(F)F)C(F)(F)F)ccc5-4)cc3n1C2=O` (repeat unit) showed a CO2 permeability of 15 Barrer, an N2 permeability of 0.53 Barrer and an O2 permeability of 3.2 Barrer.
In the case of `*c1ccc2c(c1)C(=O)N(c1ccc(Oc3ccc(N4C(=O)c5ccc(-c6nc7ccc(Cc8ccc9nc(*)oc(=O)c9c8)cc7c(=O)o6)cc5C4=O)cc3)cc1)C2=O` (repeat unit), the CO2 permeability came to 0.26 Barrer and the H2 permeability amounted to 2.56 Barrer.
